Measurements from patent publication US5492896A, “Pseudopeptides having an antiviral action” (Bayer Aktiengesellschaft, priority 1993, dated 1996).
Read-outs that look alike come from different tables or passages of the source. Numbered stars: 1 amine (or outer) side, 2 acyl side, 3 side chain; on linkers, the order of the positions; unused ones are H or OH. Square brackets hold non-standard residues; d marks the D form. Peptide text beside a SMILES is read from it. * marks the point of attachment. Tos = Cc1ccc(S(=O)(=O)*)cc1; CO = O=C([*:1])[*:2]

Legend:
HIV protease (HIV-1) = biological target: T1, HIV protease (HIV-1) (Human immunodeficiency virus type 1 group M subtype B, UniProt P04585); experiment: HIV-specific protease enzyme test (synthetic peptide cleavage, RP-HPLC); assay type: biochemical; conditions: 50% inhibition of protease activity; purified HIV protease, synthetic Gag cleavage-site peptide
T1 construct: purified HIV protease was incubated with a synthetic peptide
Procedure: This is documented by an HIV-specific protease enzyme test.
The results of the examples described below were determined by the HIV test system described in the following literature references [compare Hansen, J., Billich, S., Schulze, T., Sukrow, S. and Molling, K. (1988), EMBO Journal, volume 7, No. 6, pages 1785-1791]: purified HIV protease was incubated with a synthetic peptide which imitates a cutting site in the Gag precursor protein and represents an in vivo cleavage site of HIV protease. The cleavage products formed from the synthetic peptide were analysed by reverse phase high performance liquid chromatography (RP-HPLC). The IC50 values stated relate to the substance concentration which causes 50% inhibition of protease activity under the abovementioned test conditions.

[1] = test system: human embryonal lung fibroblasts (HELF); experiment: Anticellular (toxic and cytostatic) action in the anti-HCMV screening test; assay type: cell-based
Procedure: (§1) The anti-HCMV action was determined in a screening test system in 96-well microtitre plates with the aid of human embryonal lung fibroblasts (HELF) cell cultures. The influence of the substances on the spread of the cytopathogenic effect was determined in comparison with the reference substance ganciclovir ([…]®-sodium), a clinically approved anti-HCMV chemotherapeutic. The substances are dissolved in DMSO (dimethyl sulphoxide; 50 mM) and investigated on microtitre plates (96-well) in final concentrations of 1000-0.00048 μM (micromolar) in duplicate determinations (4 substances/plate). Toxic and cytostatic actions of the substances are also recorded here. After the appropriate dilutions of the substances (1:2) on the microtitre plate, a suspension of 50-100 HCMV-infected HELF cells and 3×10^4 non-infected HELF cells in Eagle's MEM (minimal essential medium) with 10% foetal calf serum is introduced into each cup and the plates are incubated at 37° C. in a CO2 incubating cabinet for 6 days. After this period, the cell lawn in the substance-free virus controls, starting from 50-100 infectious centres, is completely destroyed by the cytopathogenic effect (CPE) of the HCMV (100% CPE). After staining with neutral red and fixing with formalin/methanol, the plates are evaluated with the aid of a projection microscope (Plaque Viewer). […]

HCMV (Davis strain) = experiment: Anti-HCMV screening test: spread of cytopathogenic effect in HELF cell cultures; assay type: cell-based, human cytomegalovirus; conditions: concentration causing 50% inhibition of the CPE, HELF cells, 6 days
Procedure: as §1

Molecule `CC(C)[C@H](NC(=O)[C@H](CCCNC(=N)N)NC(=O)N[C@@H](Cc1ccccc1)C(=O)O)C(=O)N[C@@H](C=O)Cc1ccccc1` [IX, (2R)-2-{Nα -[((1S)-1-Carboxy-2-phenyl-ethyl)aminocarbonyl]-S-arginyl-S-valinyl}amino-3-phenyl-propan-1-al] ({Phe-CO}-Arg-Val-[dF]-aldehyde) has an IC50 (HIV protease (HIV-1)) of 160 µM.

In the case of `COC(=O)[C@H](Cc1ccccc1)NC(=O)N[C@@H](CCCNC(=N)NS(=O)(=O)c1ccc(C)cc1)C(=O)N[C@H](C(=O)N[C@@H](C=O)Cc1ccccc1)C(C)C` [Example 4] ({OMe-Phe-CO}-Arg(Tos)-Val-[dF]-aldehyde), the “CIC50 (μM) HELF” value [1] is reported as 62.5 µM and the IC50 (HCMV (Davis strain)) is reported as 1.95 µM.

For `CC(C)[C@H](NC(=O)[C@H](CCCNC(=N)N)NC(=O)N[C@@H](Cc1ccccc1)C(=O)O)C(=O)N[C@H](C=O)Cc1ccccc1` [VIII, (2S)-2-{Nα -[((1S)-1-Carboxy-2-phenyl-ethyl)aminocarbonyl]-S-arginyl-S-valinyl}amino-3-phenyl-propan-1-al] ({Phe-CO}-Arg-Val-Phe-aldehyde), the IC50 (HIV protease (HIV-1)) was 19 µM.

For `Nc1nc(O)c2ncn(COC(CO)CO)c2n1` [Namevene ®, ganciclovir], the “CIC50 (μM) HELF” value ([1]; maximum concentration which displays no evident anticellular action, HELF cells, 6 days) was 125 µM and the IC50 (HCMV (Davis strain); Human betaherpesvirus 5, 144 h) was 2 to 4 µM.
